The source of these data is ChEMBL document CHEMBL4385605, “Synthesis and Structure-Affinity Relationships of Spirocyclic Benzopyrans with Exocyclic Amino Moiety” (J Med Chem, 2019).

The structures appear in SMILES notation. Active and inactive are the calls of the source. The calls are words filed in the database; no cut-off is given here.

Test [1] concerns the target Sigma intracellular receptor 2 (Homo sapiens, UniProt Q5BJF2). In words: Displacement of [3H]-di-o-tolylguanidine from sigma2 receptor in human RT4 cell membranes incubated for 120 mins in the presence of sigma1 receptor ligand (+)-pentazocine by scintillation counting method. (In general: In a radioligand displacement assay an active substance lowers the binding of a labelled ligand.)

The target of test [2] is Delta-type opioid receptor (Rattus norvegicus) (UniProt P33533). Kind of test: Displacement of [3H]DPDPE from delta opioid receptor in rat membrane at 1 uM after 120 mins by scintillation counting analysis relative to control. It is filed as cell membranes.
Test [3] in a line: Selectivity ratio of Ki for displacement of [3H]DTG from sigma2 receptor in rat liver membranes to Ki for displacement of (+)-[3H]pentazocine from sigma 1 receptor in guinea pig brain cortex membranes. It is filed as cell membranes.
Test [4] addresses Mu-type opioid receptor (Cavia porcellus, UniProt P97266). Kind of test: Displacement of [3H]DAMGO from mu opioid receptor in guinea pig brain membranes after 120 mins by scintillation counting analysis. It is filed as cell membranes.
Test [5] concerns the target Kappa-type opioid receptor (Cavia porcellus) (UniProt P41144). Kind of test: Displacement of [3H]U69,593 from kappa opioid receptor in guinea pig brain membrane at 1 uM after 120 mins by scintillation counting analysis relative to control. It is filed as cell membranes.
The target of test [6] is Sigma non-opioid intracellular receptor 1 (Cavia porcellus, UniProt Q60492). In words: Displacement of [3H](+)-pentazocine from sigma 1 receptor in guinea pig brain cortex membranes after 120 mins by scintillation counting analysis. It is filed as cell membranes.
The target of test [7] is T1, Sigma intracellular receptor 2 (Rattus norvegicus, UniProt Q5U3Y7).
T1 sequence (Q5U3Y7 whole entry): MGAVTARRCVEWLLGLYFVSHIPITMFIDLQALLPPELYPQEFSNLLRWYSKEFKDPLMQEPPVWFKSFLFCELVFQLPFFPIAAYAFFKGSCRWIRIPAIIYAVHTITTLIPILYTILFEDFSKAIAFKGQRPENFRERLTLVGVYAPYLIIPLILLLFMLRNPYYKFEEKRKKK
Kind of test: Displacement of [3H]-di-o-tolylguanidine from sigma2 receptor in rat liver membranes incubated for 120 mins in the presence of sigma1 receptor ligand (+)-pentazocine by scintillation counting method. In kind it is cell membranes.

Test [8] concerns the target Kappa-type opioid receptor (Cavia porcellus, UniProt P41144). Kind of test: Displacement of [3H]U69,593 from kappa opioid receptor in guinea pig brain membrane after 120 mins by scintillation counting analysis. It is filed as cell membranes.
In test [9] the target is Delta-type opioid receptor (Rattus norvegicus, UniProt P33533). In words: Displacement of [3H]DPDPE from delta opioid receptor in rat membranes after 120 mins by scintillation counting analysis. It is filed as cell membranes.
The target of test [10] is Mu-type opioid receptor (Cavia porcellus) (UniProt P97266). In words: Displacement of [3H]DAMGO from mu opioid receptor in guinea pig brain membranes at 1 uM after 120 mins by scintillation counting analysis relative to control. It is filed as cell membranes.
The species entered for test [11] is Sus scrofa. In words: Displacement of [3H]-(+)-MK-801 from PCP binding site of NMDA receptor in pig brain cortex membranes up to 1 uM after 120 mins by scintillation counting analysis. It is filed as cell membranes.

Sigma non-opioid intracellular receptor 1, sequence (Q60492 whole entry): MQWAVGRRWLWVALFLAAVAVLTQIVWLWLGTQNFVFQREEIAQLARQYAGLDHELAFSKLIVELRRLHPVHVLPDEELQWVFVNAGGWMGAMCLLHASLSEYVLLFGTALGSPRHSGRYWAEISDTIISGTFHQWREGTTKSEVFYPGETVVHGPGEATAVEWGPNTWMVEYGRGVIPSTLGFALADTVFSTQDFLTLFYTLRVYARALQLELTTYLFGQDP
Kappa-type opioid receptor (Cavia porcellus), sequence (P41144 whole entry): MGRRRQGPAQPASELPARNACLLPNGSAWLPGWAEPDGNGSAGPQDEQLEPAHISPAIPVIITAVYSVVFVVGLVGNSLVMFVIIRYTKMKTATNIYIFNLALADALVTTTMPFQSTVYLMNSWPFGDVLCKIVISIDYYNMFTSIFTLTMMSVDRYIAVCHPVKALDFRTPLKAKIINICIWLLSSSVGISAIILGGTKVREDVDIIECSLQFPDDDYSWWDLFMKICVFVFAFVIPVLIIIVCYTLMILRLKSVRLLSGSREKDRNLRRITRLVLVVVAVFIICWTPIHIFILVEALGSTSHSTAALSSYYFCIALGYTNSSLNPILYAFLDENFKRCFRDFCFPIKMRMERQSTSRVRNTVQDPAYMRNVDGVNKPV
Kappa-type opioid receptor, sequence (P41144 whole entry): as above
Sigma intracellular receptor 2 (Homo sapiens, UniProt Q5BJF2), sequence (Q5BJF2 whole entry): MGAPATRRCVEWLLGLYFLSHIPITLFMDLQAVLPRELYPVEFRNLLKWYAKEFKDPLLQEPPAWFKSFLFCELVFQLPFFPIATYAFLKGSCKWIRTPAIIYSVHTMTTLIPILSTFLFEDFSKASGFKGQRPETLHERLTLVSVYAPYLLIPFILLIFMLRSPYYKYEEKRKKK
Mu-type opioid receptor (Cavia porcellus), sequence (P97266 whole entry): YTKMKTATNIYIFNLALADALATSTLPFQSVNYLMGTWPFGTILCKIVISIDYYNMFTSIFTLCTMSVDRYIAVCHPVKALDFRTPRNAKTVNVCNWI
Mu-type opioid receptor, sequence (P97266 whole entry): as above
Delta-type opioid receptor (Rattus norvegicus), sequence (P33533 whole entry): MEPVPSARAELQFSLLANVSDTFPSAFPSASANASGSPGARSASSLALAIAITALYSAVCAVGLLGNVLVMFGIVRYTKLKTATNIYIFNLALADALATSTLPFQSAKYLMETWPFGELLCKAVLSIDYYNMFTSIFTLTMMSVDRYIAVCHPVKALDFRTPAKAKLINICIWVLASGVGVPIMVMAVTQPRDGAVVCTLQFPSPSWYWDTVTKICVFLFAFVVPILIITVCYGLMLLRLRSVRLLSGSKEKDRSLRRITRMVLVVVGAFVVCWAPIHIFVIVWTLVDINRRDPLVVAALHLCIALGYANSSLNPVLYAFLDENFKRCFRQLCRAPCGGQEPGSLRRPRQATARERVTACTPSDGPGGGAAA
Delta-type opioid receptor, sequence (P33533 whole entry): as above

One may read the Ki as a dissociation constant, usually derived from enzyme kinetics or from competition with a known ligand. By inhibition is commonly meant the share of the control response that was lost under treatment. The low end stands for little suppression, the high end for strong suppression. With `c1ccc2c(c1)CCO[C@]21CC[C@@H](NCC2CCCCC2)CC1`, the Ki in test [1] stood at 0.033 µM; in test [4], 0.841 µM; in [6], 0.018 µM; in test [7] it was 0.084 µM. In addition, the inhibition in [2] stood at 11%; in [5] it was 16%. The Ratio Ki in test [3] fell in the range of 5 to 10.
With `CCOC1Cc2ccccc2[C@]2(CC[C@@H](NCC3CCCCC3)CC2)O1` (stereo not given in full), the Ki in test [1] is 0.016 µM; in test [8] it was 0.085 µM; in [4], 0.185 µM; in test [6] it was 0.183 µM; in [7] it was 0.161 µM; in test [9], 0.185 µM. The Ratio Ki in [3] is 5 to 10.
As to `c1ccc(CN[C@H]2CC[C@]3(CC2)OCCc2ccccc23)cc1`, the values for the inhibition in test [2], in [10] and in test [5] were 20%, 0% and 0%, respectively. The Ratio Ki in test [3] is 5 to 10. The Ki was found to be 0.097 µM in test [6] and 0.503 µM in [7].
As to `COC1O[C@]2(CC[C@@H](NCc3ccccc3)CC2)c2ccccc21` (stereo not given in full), the Ratio Ki in test [3] was 5 to 10. Moreover, the Ki in test [8] stood at 1.14 µM; in test [4], 0.768 µM; in test [6], 0.05 µM; in test [7], 0.751 µM; in [9], 0.655 µM.
Regarding `C1=Cc2ccccc2[C@]2(CC[C@H](NCC3CCCCC3)CC2)O1`, the Ki in test [1] stood at 0.0067 µM; in test [6], 0.0057 µM; in test [7], 0.067 µM; in test [9], 0.209 µM. In addition, the Ratio Ki in [3] lay in the range of 5 to 10. Further, the results for the inhibition in test [10] and in test [5] were 15% and 18%, respectively.
In the case of `COC1Cc2ccccc2[C@]2(CC[C@H](NCc3ccccc3)CC2)O1` (stereo not given in full), in test [1], the inhibition constant (Ki) amounted to 0.227 µM. Also, the values for the inhibition in [2], in test [10] and in test [5] were 41%, 20% and 27%, respectively. Besides, the outcome in [11] was inactive.
In the case of `CN(CC1CCCCC1)[C@H]1CC[C@]2(CC1)OCCc1ccccc12`, the Ki in test [1] was 0.0055 µM; in [6], 0.0031 µM; in test [7], 0.03 µM; in [9] it was 0.565 µM. In addition, the Ratio Ki in test [3] fell in the range of 5 to 10. The figures for the inhibition in test [10] and in [5] were 13% and 10%, respectively.
In the case of `COC1O[C@]2(CC[C@H](N(C)CC3CCCCC3)CC2)c2ccccc21` (stereo not given in full), the Ki in test [1] turned out to be 0.0094 µM; in [8], 0.639 µM; in test [4], 0.231 µM; in [6], 0.008 µM; in test [7] it was 0.164 µM; in test [9], 0.254 µM. Also, the Ratio Ki in test [3] was found to be 21.
Take `CN(CC1CCCCC1)[C@H]1CC[C@@]2(CC1)OC=Cc1ccccc12`: the Ki in [1] stood at 0.016 µM; in test [4], 0.163 µM; in [6], 0.0049 µM; in [7], 0.081 µM. The molecule further displayed an inhibition in [2] of 11%. Besides, in [3], the Ratio Ki fell in the range of 5 to 10.
Consider `COC1O[C@]2(CC[C@H](NCC3CCCCC3)CC2)c2ccccc21` (stereo not given in full), for which the Ki in [1] turned out to be 0.039 µM; in test [8], 0.506 µM; in [4], 0.273 µM; in [6] it was 0.019 µM; in test [7], 0.133 µM; in [9] it was 0.114 µM. For the same molecule, the Ratio Ki in [3] is 5 to 10.
For the molecule `c1ccc2c(c1)CCO[C@]21CC[C@H](NCC2CCCCC2)CC1`, the Ki turned out to be 0.008 µM in [1]; 0.236 µM in [8]; 0.114 µM in test [4]; 0.015 µM in [6]; 0.099 µM in test [7]; 0.178 µM in test [9]. In addition, the Ratio Ki in test [3] fell in the range of 5 to 10.
For `CCOC1Cc2ccccc2[C@]2(CC[C@H](N(C)CC3CCCCC3)CC2)O1` (stereo not given in full), the Ki in test [1] is 0.014 µM; in test [4] it was 0.297 µM; in test [6], 0.0081 µM; in test [7] it was 0.042 µM; in [9], 0.356 µM. Further, the Ratio Ki in test [3] was 5 to 10. In addition, the inhibition in test [5] was 18%.
Consider `COC1O[C@]2(CC[C@@H](NCC3CCCCC3)CC2)c2ccccc21` (stereo not given in full), for which the Ki in test [1] worked out at 0.011 µM; in test [4], 0.501 µM; in [6] it was 0.02 µM; in test [7], 0.052 µM; in test [9], 0.143 µM. In addition, the Ratio Ki in [3] is 5 to 10. The inhibition in test [5] is 23%.
Turning to `COC1O[C@]2(CC[C@@H](N(C)CC3CCCCC3)CC2)c2ccccc21` (stereo not given in full), the Ki in [1] stood at 0.0076 µM; in test [6], 0.0082 µM; in test [7], 0.07 µM; in test [9] it was 0.559 µM. Further, the Ratio Ki in test [3] lay in the range of 5 to 10. For the same molecule, the figures for the inhibition in [10] and in [5] were 16% and 0%, respectively.
`CN(CC1CCCCC1)[C@H]1CC[C@]2(CC1)OC=Cc1ccccc12`: the Ki in [1] is 0.0046 µM; in test [4], 0.391 µM; in [6], 0.0023 µM; in test [7], 0.033 µM. The same molecule had an inhibition in test [2] of 38%. The Ratio Ki in test [3] was 5 to 10.
As to `C1=Cc2ccccc2[C@]2(CC[C@@H](NCC3CCCCC3)CC2)O1`, the Ki came out at 0.007 µM in test [1]; 0.604 µM in test [8]; 0.258 µM in test [4]; 0.012 µM in [6]; 0.053 µM in [7]; 0.479 µM in [9]. Moreover, in test [3], the Ratio Ki was in the range of 5 to 10.
On to `CCOC1Cc2ccccc2[C@]2(CC[C@@H](N(C)CC3CCCCC3)CC2)O1` (stereo not given in full), for which the Ki came out at 0.093 µM in test [1], 0.879 µM in test [4], 0.015 µM in test [6] and 0.361 µM in [7]. Besides, the inhibition was found to be 13% in test [2] and 24% in test [5]. Also, the Ratio Ki in test [3] amounted to 24.
Regarding `COC1Cc2ccccc2[C@]2(CC[C@@H](NCC3CCCCC3)CC2)O1` (stereo not given in full), in [3], the Ratio Ki was 5 to 10. Also, the Ki in [8] worked out at 0.096 µM; in test [4], 0.354 µM; in test [6], 0.019 µM; in test [7], 0.128 µM; in test [9] it was 0.228 µM. Also, the result in test [11] was inactive.
For `COC1Cc2ccccc2[C@]2(CC[C@H](NCC3CCCCC3)CC2)O1` (stereo not given in full), the inhibition in test [2] worked out at 33%; in [5], 28%. In test [3], the Ratio Ki lay within 5 to 10. Besides, the values for the Ki in [4], in test [6] and in test [7] were 0.462 µM, 0.0058 µM and 0.101 µM, respectively. Moreover, in test [11], the outcome was inactive.
Consider `CN(CC1CCCCC1)[C@H]1CC[C@@]2(CC1)OCCc1ccccc12`, for which the Ki in test [1] was found to be 0.012 µM; in test [6], 0.008 µM; in [7], 0.175 µM; in test [9], 0.187 µM. Moreover, the Ratio Ki in [3] was found to be 22. The molecule further displayed an inhibition in test [5] of 23%.
Regarding `CCOC1Cc2ccccc2[C@]2(CC[C@H](NCC3CCCCC3)CC2)O1` (stereo not given in full), the Ki stood at 0.046 µM in test [1]; 0.745 µM in test [8]; 0.495 µM in test [4]; 0.036 µM in test [6]; 0.308 µM in test [7]; 0.432 µM in test [9]. Further, the Ratio Ki in [3] lay within 5 to 10.
